≈ marks a conversion by molar mass, not a printed value. Where “and” joins values, the source holds several entries; their conditions need not be identical. Identical values can stand only once. Entries after “also recorded” stand apart in the source; their conditions may differ. Like-named read-outs stand apart in the source and are kept apart here.
How the values were obtained:
lymphoid leukemia L1210 [1] = conditions: cited from earlier work; for antitumor activity, prior testing: L1210 system, prior/literature
[2] = Octanol/H2O partition coefficient (log P); type: physicochemical; conditions: Table VII, octanol/H2O
Source text: ^(b) Octanol/H2 O values determined by C. Hansch and M. Yamakawa

ependymoblastoma = experiment: Intracerebral (IC) ependymoblastoma (EM) brain tumor test; type: in vivo, murine; conditions: for ILS (percentage increase in life span) / OD (optimum dose) / animals alive per 6 test animals on day of termination: Table X, IC ependymoblastoma; for ILS (percentage increase in life span) / animals alive per 6 test animals on day of termination: QD1-5, at OD; for antitumor activity: IC ependymoblastoma (EM); for OD (optimum dose): QD1-5; for animals alive per 6 test animals on day of termination / survivors (number in parentheses) EM: day 60; for survivors (number in parentheses) EM: Table XI, per 6 test animals
Source text: ^c Ic tumor implantation, ip QD1-5 treatment schedule.
^g Number of animals alive per six test animals on day of termination
of experiment (day 99 for expt 133 and day 60 for expt 136 and 144).
A third IC transplanted mouse tumor model, the ependymoblastoma system, was also studied. This system requires intracerebral implantation of a solid tumor fragment while the IC L1210 and IC P388 systems utilize IC inoculated ascites tumor fluid. All three use IP drug treatment however. […] Cures (survivors from the group of six mice on the last day of the experiment) are indicated. Experiments 136 and 144 were terminated on day 60. Since the number of cures was about the same, the differences in T/C values in these two experiments reflect differences in the life span of the two different sets of control animals. Experiment 133 was terminated on day 99 with a resulting higher activity value.
The hydrophilic dihydroxypropylamino compound (No. 39), which was curative in the IP L1210 and P388 leukemia systems, was active but gave a large spread in ILS values (53-186%). […] Again, its hydrophilic character may present transport problems in this IC tumor system.

lymphoid leukemia L1210 [3] = experiment: Intraperitoneal (IP) lymphoid leukemia L1210 transplanted mouse tumor test; type: in vivo, murine; conditions: for OD (optimum dose) / T - C (average weight change of test group minus control) / ILS (percentage increase in life span) / animals alive per 6 test animals on day of termination: Table VIII; for T - C (average weight change of test group minus control): day 5; for animals alive per 6 test animals on day of termination / survivors (number in parentheses) IP L1210: day 30; for ILS (%) IP L1210 / survivors (number in parentheses) IP L1210: Table XI; for ILS (%) IP L1210: outstanding activity; for survivors (number in parentheses) IP L1210: per 6 test animals
Source text: ^(a) Day 1-9 treatment schedule (9 injections)
^(b) Day 1,5,9 treatment schedule (3 injections)
^(c) Day 1 only treatment schedule (1 injection)
^(f) Percentage increase in life span of treated animals [(treated
survival .div. control survival) × 100%] - 100%

[4] = test system: P388 lymphocytic leukemia; experiment: Intraperitoneal (IP) lymphocytic leukemia P388 transplanted mouse tumor test; type: in vivo, murine; conditions: Table IX; for OD (optimum dose): IP P388, QD1-9; for ILS (percentage increase in life span): IP P388, QD1-9, at OD
Source text: (§1) ^b Ip tumor implantation, ip QD1-9 treatment schedule.
(§2) The L1210, P388 and B16 test systems described in Table II utilize intraperitoneal (IP) tumor implantation and IP drug treatment while the Lewis lung system employs subcutaneous tumor implantation and IP treatment.
(§3) Aqueous saline solution (0.9%) was used as the drug vehicle. Normally, five doses were employed per experiment with the top dose chosen to produce toxicity. The lower doses were 50% of each preceeding dose.
(§4) Consistent with NCI antitumor test protocols, intraperitoneal (IP) administration of the drug was employed with all five tumor systems investigated. Tumor implantation was IP in the systems designated IP leukemia L1210 and P388 as well as B16 melanoma.

B16 melanocarcinoma = experiment: Intraperitoneal B16 melanocarcinoma transplanted mouse tumor test; type: in vivo, murine; conditions: for ILS (percentage increase in life span) / OD (optimum dose): Table IX; for ILS (percentage increase in life span): B16, QD1-9, at OD; for OD (optimum dose): B16, QD1-9
Source text: as §1, §2, §3, §4

[5] = Room temperature water solubility; type: physicochemical
Method: In the following examples, all melting points are uncorrected and were recorded on a Thomas-Hoover capillary melting point apparatus. Elemental analyses were performed by NIAMDD, NIH, Bethesda, Maryland. Fluoranil, ethyleneimine and 2l -methylethyleneimine were obtained commerically. […] New compounds were identified by nmr and ir spectroscopy. In the tetraamino derivatives, the methylene protons of the aziridine rings usually occurred as a singlet at δ2.0-2.2 in CDCl3 or DMSO-d6. This absorption appeared at δ2.40 (CDCl3) for compound 11. Carbonyl absorption frequencies (nujol mull) occurred in the range 1620-1640 cm^-1 for the tetraamino compounds. Satisfactory elemental analyses (+0.4% of calculated values) are indicated by elemental symbols in Table VII. Room temperature water solubilities were determined by the incremental addition (pipet) of water to a weighed amount of compound with shaking. The solubility values in Table VII must be considered as approximate.

lymphoid leukemia L1210 [6] = experiment: Intracerebral (IC) lymphoid leukemia L1210 test; type: in vivo, murine; conditions: for OD (optimum dose) / ILS (percentage increase in life span): Table X
[7] = IP L1210, Q4D(1,5,9) (3 injections)
[8] = water, Table VII, room temperature, approximate, read-out: Approx. H2O Sol.
[9] = IP L1210, Day 1 only (1 injection)

## O=C1C(Cl)=C(N2CC2)C(=O)C(Cl)=C1N1CC1 [Compound 4, 2,5-dichloro-3,6-diaziridinyl-1,4-benzoquinone]
Lymphoid leukemia L1210 [1]
  antitumor activity, prior testing: inactive

## CC(=O)NC1=C(Cl)C(=O)C(NC(C)=O)=C(Cl)C1=O [Compound 20, 2,5-dichloro-3,5-acetylamino-1,4-benzoquinone]
Lymphoid leukemia L1210 [1]
  antitumor activity, prior testing: inactive

## COC1=C(N2CC2)C(=O)C(OC)=C(N2CC2)C1=O [Compound 28]
Lymphoid leukemia L1210 [1]
  antitumor activity, prior testing: intraperitoneal (IP) leukemia L1210 activity

## O=C1C(N2CCOCC2)=C(N2CC2)C(=O)C(N2CCOCC2)=C1N1CC1 [Compound 46, 2,5-Diaziridinyl-3,6-dimorpholino-1,4-benzoquinone]
[2]
  log P: 0.52
ependymoblastoma
  ILS (percentage increase in life span): 134% and 82%
Lymphoid leukemia L1210 [3]; [7]
  OD (optimum dose): 6.0 mg/kg/injection
Lymphoid leukemia L1210 [3]; IP L1210, Q4D(1,5,9), at OD
  T - C (average weight change of test group minus control): -2.6 grams
[4]
  OD (optimum dose): 0.5 mg/kg/injection and 0.7 mg/kg/injection
  ILS (percentage increase in life span): 52% and 48%
B16 melanocarcinoma
  ILS (percentage increase in life span): 24% and 17%
[5]; [8]
  solubility: < 100 µg/mL

## CC(=O)NC1=C(N2CC2)C(=O)C(NC(C)=O)=C(N2CC2)C1=O [Compound 27]
Lymphoid leukemia L1210 [1]
  antitumor activity, prior testing: active; also recorded: intraperitoneal (IP) leukemia L1210 activity

## CCNC1=C(N2CC2)C(=O)C(NCC)=C(N2CC2)C1=O [Compound 35, 2,5-Diaziridinyl-3,6-bis(ethylamino)-1,4-benzoquinone]
ependymoblastoma
  antitumor activity: most active
  OD (optimum dose): 1.5 mg/kg/injection
  ILS (percentage increase in life span): 218% and 187%
  animals alive per 6 test animals on day of termination: 2
  survivors (number in parentheses) EM: 2
Lymphoid leukemia L1210 [3]; IP L1210, tetraaminobenzoquinone series (Table VIII)
  antitumor activity: activity appears to peak
Lymphoid leukemia L1210 [3]; [9]
  OD (optimum dose): 1.5 mg/kg/injection
Lymphoid leukemia L1210 [3]; IP L1210, Day 1 only, at OD
  ILS (percentage increase in life span): 68% and 54%
Lymphoid leukemia L1210 [3]; [7]
  OD (optimum dose): 3.0 mg/kg/injection and 1.5 mg/kg/injection
Lymphoid leukemia L1210 [3]; IP L1210, Q4D(1,5,9), at OD
  ILS (percentage increase in life span): 75% and 57%
Lymphoid leukemia L1210 [3]; IP L1210, QD1-9 (9 injections)
  OD (optimum dose): 1.5 mg/kg/injection
Lymphoid leukemia L1210 [3]; IP L1210, QD1-9, at OD
  ILS (percentage increase in life span): 112% and 91%
  T - C (average weight change of test group minus control): -3.3 grams
  animals alive per 6 test animals on day of termination: 2 and 1
Lymphoid leukemia L1210 [3]
  ILS (%) IP L1210: 112%
  survivors (number in parentheses) IP L1210: 2
Lymphoid leukemia L1210 [6]; IC L1210, QD1-9
  OD (optimum dose): 3.0 mg/kg/injection
Lymphoid leukemia L1210 [6]; IC L1210, QD1-9, at OD
  ILS (percentage increase in life span): 44% and 40%
[4]
  ILS (percentage increase in life span): 160% and 103%
B16 melanocarcinoma
  OD (optimum dose): 0.4 mg/kg/injection and 0.7 mg/kg/injection
  ILS (percentage increase in life span): 26% and 24%
[5]; [8]
  solubility: 500 µg/mL (≈ 1810 µM)

## CN(CCO)C1=C(N2CC2)C(=O)C(N(C)CCO)=C(N2CC2)C1=O [Compound 42]
[2]; octanol/water
  logP: -0.38
ependymoblastoma
  OD (optimum dose): 0.4 mg/kg/injection and 0.2 mg/kg/injection
  ILS (percentage increase in life span): 84% and 69%
Lymphoid leukemia L1210 [3]; [7]
  OD (optimum dose): 0.4 mg/kg/injection and 0.2 mg/kg/injection
Lymphoid leukemia L1210 [3]; IP L1210, QD1-9 (9 injections)
  OD (optimum dose): 1.5 mg/kg/injection
Lymphoid leukemia L1210 [3]; IP L1210, QD1-9, at OD
  animals alive per 6 test animals on day of termination: 1
Lymphoid leukemia L1210 [3]
  ILS (%) IP L1210: 114%
  survivors (number in parentheses) IP L1210: 1
Lymphoid leukemia L1210 [6]; IC L1210, QD1-9
  OD (optimum dose): 4.0 mg/kg/injection and 2.0 mg/kg/injection
Lymphoid leukemia L1210 [6]; IC L1210, QD1-9, at OD
  ILS (percentage increase in life span): 45% and 32%
[4]
  OD (optimum dose): 1.6 mg/kg/injection and 0.8 mg/kg/injection
  ILS (percentage increase in life span): 162% and 145%
B16 melanocarcinoma; B16 melanoma
  antitumor activity: approached minimal reproducible activity
B16 melanocarcinoma
  OD (optimum dose): 0.8 mg/kg/injection
  ILS (percentage increase in life span): 47% and 31%
[5]; [8]
  solubility: 60000 µg/mL (≈ 178000 µM)

## O=C1C(Cl)=C(Cl)C(=O)C(Cl)=C1Cl [chloranil, tetrachlorobenzoquinone]
Lymphoid leukemia L1210 [1]
  antitumor activity, prior testing: inactive

## CN(C)C1=C(N2CC2)C(=O)C(N(C)C)=C(N2CC2)C1=O [Compound 41, 2,5-Diaziridinyl-3,6-bis(dimethylamino)-1,4-benzoquinone]
ependymoblastoma
  antitumor activity: among the most active materials
  OD (optimum dose): 1.0 mg/kg/injection and 0.5 mg/kg/injection
  ILS (percentage increase in life span): 215% and 190%
  animals alive per 6 test animals on day of termination: 5 and 4
  survivors (number in parentheses) EM: 5
Lymphoid leukemia L1210 [3]; [9]
  OD (optimum dose): 1.5 mg/kg/injection
Lymphoid leukemia L1210 [3]; IP L1210, Day 1 only, at OD
  ILS (percentage increase in life span): 21% and 15%
Lymphoid leukemia L1210 [3]; [7]
  OD (optimum dose): 3.0 mg/kg/injection
Lymphoid leukemia L1210 [3]; IP L1210, Q4D(1,5,9), at OD
  ILS (percentage increase in life span): 120% and 73%
  animals alive per 6 test animals on day of termination: 1
Lymphoid leukemia L1210 [3]
  ILS (%) IP L1210: 120%
  survivors (number in parentheses) IP L1210: 1
Lymphoid leukemia L1210 [6]; IC L1210
  antitumor activity: most active; also recorded: significant activity
Lymphoid leukemia L1210 [6]; IC L1210, Q4D(1,5,9)
  OD (optimum dose): 3.0 mg/kg/injection
Lymphoid leukemia L1210 [6]; IC L1210, Q4D(1,5,9), at OD
  ILS (percentage increase in life span): 72% and 56%
Lymphoid leukemia L1210 [6]; Table XI, outstanding activity
  ILS (%) IC L1210: 72%
[4]
  OD (optimum dose): 1.0 mg/kg/injection and 0.5 mg/kg/injection
  ILS (percentage increase in life span): 74% and 37%
B16 melanocarcinoma
  OD (optimum dose): 0.2 mg/kg/injection
  ILS (percentage increase in life span): 16% and 12%
[5]
  solubility: increases the solubility greatly
[5]; [8]
  solubility: 10000 µg/mL (≈ 36200 µM)

## NC1=C(Cl)C(=O)C(N)=C(Cl)C1=O [Compound 19]
Lymphoid leukemia L1210 [1]
  antitumor activity, prior testing: inactive

## NC(=O)CNC1=C(N2CC2)C(=O)C(NCC(N)=O)=C(N2CC2)C1=O [Compound 40]
ependymoblastoma
  OD (optimum dose): 2.0 mg/kg/injection and 1.0 mg/kg/injection
  ILS (percentage increase in life span): 64% and 50%
Lymphoid leukemia L1210 [3]; [9]
  OD (optimum dose): 10.0 mg/kg/injection
Lymphoid leukemia L1210 [3]; IP L1210, Day 1 only, at OD
  ILS (percentage increase in life span): 21% and 15%
Lymphoid leukemia L1210 [3]; [7]
  OD (optimum dose): 8.0 mg/kg/injection
Lymphoid leukemia L1210 [3]; IP L1210, QD1-9 (9 injections)
  OD (optimum dose): 10.0 mg/kg/injection
Lymphoid leukemia L1210 [3]; IP L1210, QD1-9, at OD
  ILS (percentage increase in life span): 92% and 91%
Lymphoid leukemia L1210 [6]; IC L1210, QD1-9, at OD
  ILS (percentage increase in life span): 16%
[4]
  OD (optimum dose): 2.0 mg/kg/injection
  ILS (percentage increase in life span): 85% and 71%
B16 melanocarcinoma
  ILS (percentage increase in life span): 37% and 22%
[5]; [8]
  solubility: 500 µg/mL (≈ 1500 µM)

## COC1=C(Br)C(=O)C(OC)=C(Br)C1=O [Compound 14, 2,5-dibromo-3,6-dimethoxy-1,4-benzoquinone]
Lymphoid leukemia L1210 [1]
  antitumor activity, prior testing: inactive

## O=C1C(N2CC2)=C(N2CC2)C(=O)C(N2CC2)=C1N1CC1 [tetraaziridinyl derivative]
Lymphoid leukemia L1210 [1]; L1210 leukemia system, earlier evaluation
  ILS: 39%

Reference: patent US4146622A, “Aziridinyl quinone anti-transplanted tumor agents” (priority 1977, dated 1979)
